# Values quoted from earlier work as cited in patent US8415299B2, “Methods for improved avian performance” (priority 2004, dated 2013).
# Assays:
# laying hens = conditions: cited from earlier work
# [1] = tested on: T4 and rT3 deiodination systems; conditions: rat liver homogenates; cited from earlier work
structure (smiles),measurement,setting,value
C[C@]12C[C@H](O)[C@H]3[C@@H](CCC4=CC(=O)CC[C@@]43C)[C@@H]1CC[C@@H]2C(=O)CO [corticosterone],Laying hens with cessation of egg production,laying hens; 20 to 40 mg/kg diet (Wolford et al. 1983),98%
I [iodide],Effect on egg production,"laying hens; 5,000 mg/kg diet",cessation of egg production
CCNC(=O)[C@@H]1CCCN1C(=O)[C@H](CCCNC(=N)N)NC(=O)[C@H](CC(C)C)NC(=O)[C@@H](CC(C)C)NC(=O)[C@H](Cc1ccc(O)cc1)NC(=O)[C@H](CO)NC(=O)[C@H](Cc1c[nH]c2ccccc12)NC(=O)[C@H](Cc1c[nH]cn1)NC(=O)[C@@H]1CCC(=O)N1 [leuprolide acetate],Body weight,laying hens; single i.m. depot injection releasing 60 mcg/kg body weight per day for 30 days,no body weight loss
same,Egg production,"laying hens; single i.m. depot injection releasing 60 mcg/kg body weight per day for 30 days, second week (Burke and Attia 1994)",3.5%
C=C1C[C@H]2[C@@H]3C=C(C)C4=CC(=O)CC[C@]4(C)[C@H]3CC[C@]2(C)[C@@]1(OC(C)=O)C(C)=O [melengestrol acetate],Effect on reproductive system,laying hens; 4 or 8 mg per laying hen per day through the feed (Koch et al. 2004),reversible regression of the reproductive system
[Zn+2] [zinc],Action on progesterone production in F1 granulosa cells of the ovary,"laying hens; 2,800 mg/kg diet (Johnson and Brake 1992)",inhibitory action
same,Inhibition of T4 and rT3 deiodination,[1],potent inhibitor
